Reference: patent US6531143B1, “α-hydroxy fatty acid derivatives and external compositions containing the same” (Kanebo, Limited, priority 1998, dated 2003)
Like-named read-outs stand apart in the source and are kept apart here.

Columns and labels:
[1] = system: skin (facies medialis brachii of 20 subjects); conditions: in vivo
Experimental: (§1) As the safety test, irritation to the skin was examined by the following method. Each sample of the alpha-hydroxy fatty acid derivatives obtained in the Examples prepared by dissolving in olive oil in the concentration of 50 wt % and an adhesive plaster for patch test was impregnated with 1 ml of the sample. The adhesive plaster was put on the facies medialis brachii of 20 subjects for 24 hours. Irritation was evaluated 24 hours after removing the patch.

[2] = system: skin (facies medialis brachii of 20 subjects); assay: Safety test: irritation to the skin, 24 h patch test; conditions: 50 wt % in olive oil, 1 ml on adhesive plaster, 24 hours on facies medialis brachii, evaluated 24 hours after removing the patch, subjects with clear erythema
Experimental: as §1

Molecule: 2-long-chain branched fatty acid (12-31) oxypalmitic acid palmityl ester
- Positive percentage [1]: 0%

Molecule: CCCCCCCCCCCCCCCCOC(=O)C(CCCCCCCCCCCCCC)OC(C)=O (stereo not shown) [2-acetyloxypalmitic acid palmityl ester]
- Positive percentage [2]: 0%
- melting point: 35.1 °C

Molecule: CCCCCCCCCCCCCCCCC(OC(C)=O)C(=O)OCCCCCCCCCCCCCCCCCC(C)C (stereo not shown) [2-acetyloxystearic acid-(18)-methylnonadecanyl ester]
- Positive percentage [2]: 0%

Molecule: CCCCCCCCCCCCC(OC(=O)C(C)C)C(=O)OCCCCCCCCCCCCCCCCCC(C)CC (stereo not shown) [2-isobutyryloxymyristic acid-(18)-methylicosanyl ester]
- Positive percentage [2]: 0%

Molecule: CCCCCCCCCCCCCCCCOC(=O)C(CCCCCCCCCCCCCC)OC(=O)C(C)C (stereo not shown) [2-isobutyryloxypalmitic acid palmityl ester]
- Positive percentage [2]: 0%
- melting point: 28.3 °C

Molecule: CCCCCCCCCCCCOC(=O)C(CCCCCCCCCC)OC(=O)CC(C)C (stereo not shown) [2-isovaleryloxylauric acid lauryl ester]
- Positive percentage [2]: 0%

Molecule: CCCCCCCCCCCCCCCCOC(=O)C(CCCCCCCCCCCCCC)OC(=O)CCCCCCCCCCCCCCC (stereo not shown) [2-palmitoyloxypalmitic acid palmityl ester]
- Positive percentage [2]: 0%
- melting point: 52.5 °C
